Measured values from US6391848B1, “Soybean protein nutraceuticals” (The Regents of the University of California, priority 1999, dated 2002).

What was measured:
[1] = system: carcinogen-treated cultured cells; conditions: in vitro or in vivo; cited from earlier work
[2] = system: C3H 10T1/2 mouse fibroblast cells; assay: in vitro transformation assay of C3H 10T1/2 cells with carcinogens MCA and DMBA; assay type: cell-based
mammalian cells [3] = assay: internalization of lunasin into the cell; assay type: cell-based
Text: (§1) The lunasin polypeptide also contains a functional RGD (arg-gly-asp) motif.
Chromatin Modification and Tumor Suppression. […] (DePinho,1998; Brehm et al, 1998; Magnaghi-Jaulin, 1998; Pazin and Kadonaga, 1997; Hassig et al, 1997; Laherty et al, 1997). For instance, the retinoblastoma protein Rb is complexed with E2F (a family of transcription factors controlled by Rb) and HDAC1 (the major mammalian histone deacetylase which modulates chromatin structure) in mammalian cells. Rb represses E2F-regulated promoter by recruiting HDAC1 which deacetylates core histones causing a tighter association between DNA and nucleosomes, thus impairing the binding of transcription factors to recognition elements in DNA. The Rb/HDAC/E2F complex could be the target for transforming viruses leading to the release of suppression and a fully transformed state. […] Consequently, gene expression is more or less permanently repressed.

hypoacetylated chromatin = assay: binding of lunasin to chromatin in cells; assay type: cell-based
Text: as §1

mammalian cells [4] = assay: effect on mitosis and kinetochore assembly of mammalian cells; assay type: cell-based
Text: as §1

cell membrane integrins = assay: binding to cell membrane integrins in mammalian cell cultures; assay type: cell-based; conditions: exogenously applied; through the RGD tripeptide
Text: as §1

carcinogenesis = assay: inhibition of carcinogenesis in in vitro and animal models; conditions: comparable dosages and routes of administration; cell and animal studies
Text: Exemplary lunasin-del compounds include (again using N→C nomenclature convention) shown to be effective at inhibiting carcinogenesis in in vitro and animal models include:
BBI is an 8 kDa protein that is known to dimerize in solution.

| Molecule | effect on carcinogenesis after administration of the agent is stopped [1] | concentration of exogenously applied peptide (as low as) that inhibits transformation into tumorous foci ([2]; carcinogens MCA and DMBA, range 10 nM to 10 mM) [nM] | prevention of carcinogen-induced tumor formation compared with BBIC ([2]; equimolar amounts) | inhibition of carcinogen-mediated transformation of fibroblast cells into tumorous foci ([2]; exogenous application, carcinogens MCA and DMBA) | internalization in the cell (mammalian cells [3]) | binding to chromatin (hypoacetylated chromatin; exogenously applied to mammalian cell cultures, lunasin that gets into the nucleus) | binding to chromatin (hypoacetylated chromatin; lunasin gene transfected and expressed inside the cell) | effect on kinetochore assembly (mammalian cells [4]; exogenously applied, internalized lunasin, cells undergo normal mitosis) | effect on mitosis (mammalian cells [4]; when expressed in mammalian cells) | binding to cell membrane integrins (cell membrane integrins) | efficacy when substituted for BBI (carcinogenesis) |
| --- | --- | --- | --- | --- | --- | --- | --- | --- | --- | --- | --- |
| CC1=C(/C=C/C(C)=C/C=C/C(C)=C/C=C/C=C(C)/C=C/C=C(C)/C=C/C2=C(C)CCCC2(C)C)C(C)(C)CCC1 [b-carotene] | reversible effect |  |  |  |  |  |  |  |  |  |  |
| lunasin |  | 10 | more effective than BBIC | inhibits the transformation | gets internalized in the cell via the RGD motif | sufficient to effectively bind regions of hypoacetylated chromatin | preferentially binds to hypoacetylated chromatin | appears not to affect kinetochore assembly | antimitotic effect | binds to cell membrane integrins | provides efficacy |
| vitamin E | reversible effect |  |  |  |  |  |  |  |  |  |  |
